Experimental data: patent publication US20230372458A1, “ANTIVIRAL AGENT FOR COMBINED THERAPY OF COVID-19 (SARS-COV-2)” (priority 2020, published 2023)
Read-outs that look alike come from different tables or passages of the source.

System: COVID-19 (SARS-CoV-2)
Details: lung damage by computer tomography

Which results are given for `NC(=O)c1nc(F)cnc1O` [FPV, 6-fluoro-3-hydroxy-2-pyrazinecarboxamide]?
CT on Day 14: Improvement, percent of patients: (72.7%); CT on Day 14: No change, percent of patients: (9.1%); CT on Day 14: Worsening, percent of patients: (18.2%); CT on Day 14: Improvement, number of patients (count of patients): 8; CT on Day 14: No change, number of patients (count of patients): 1; CT on Day 14: Worsening, number of patients (count of patients): 2; CT on Day 14: Improvement, percent of patients (listed as FVP): 72.7%; CT on Day 14: No change, percent of patients (listed as FVP): 9.1%; CT on Day 14: Worsening, percent of patients (listed as FVP): 18.2%
